Where a name gives a salt, the structure may show the parent alone.
Key:
Format in all cases: biochemical
[1] = target: T1, RET (Homo sapiens, UniProt P07949); test: Inhibition of RET kinase activity, recombinant RET method (Kinase-Glo); settings: RET 2 μg/ml, poly-EY4 substrate, 20 μM ATP, two hours at 30° C.
T1 construct: purchased Upstate 14-570MG
Procedure, shortened: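 Recombinant RET at 2 μg/ml in 20 mM MOPS/NaOH pH 7.0, 1 mM EDTA, 5% glycerol, 0.01% Brij35, 0.1% 2-mercaptoethanol, 1 mg/ml BSA; compounds 10 nM–30 μM final.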

[2] = target: T2, PIM-1 (Homo sapiens, UniProt P11309); test: Inhibition of kinase PIM-1 (Kinase-Glo); settings: PIM-1 0.625 μg/ml, 10 μM ATP, forty minutes at 30° C.
T2 construct: purchased Upstate 14-573
Procedure: Protein PIM-1 (Upstate #14-573 batch 25864U) is incubated at a concentration of 0.625 μg/ml in a buffer containing 8 mM of MOPS/NaOH pH7, 0.2 mM EDTA, 5 mM MgAc (Sigma #229768), 0.01% Triton Tx100, in the presence of 70 μM of peptide substrate S6 Kinase/Rsk2 (Upstate #12-243), and 10 μM of ATP.
The dilution buffer for PIM-1 is as follows: 20 mM MOPS/NaOH pH7, 1 mM EDTA, 5% glycerol, 0.01% Brij35, 0.1% 2-mercapto, 1 mg/ml BSA
(§1) The compound to be tested is first added to the enzyme to give a reaction volume of 50 μl. The dilution of the compounds of the invention is distributed so as to obtain a scale of final concentrations between 10 nM and 30 μM.
(§2) After incubation of the reaction mixture for forty minutes at 30° C., the level of ATP that remains is assayed using the Kinase-Glo Luminescent Kinase Assay (Promega #V6712) according to the conditions recommended by the supplier. The luminescence induced is read in a plate reader (Envision-Perkin Elmer).

[3] = target: T3, TrkA (Homo sapiens, UniProt P04629); test: Inhibition of kinase TrkA (Kinase-Glo); settings: TrkA 4 μg/ml, 30 μM ATP, two hours at 30° C.
T3 construct: purchased Upstate 14-571
Procedure: Protein TrkA (Upstate 14-571; batch #25634U) is incubated at a concentration of 4 μg/ml in a buffer containing 8 mM of MOPS/NaOH pH7, 0.2 mM EDTA, 40 mM MgAc (Sigma #229768), 1 mM DTT (Fluka #43816), NaOV 1 mM, 0.01% Triton Tx100, in the presence of 1 mg/ml of peptide substrate poly-EY (Upstate #P0275), and 30 μM of ATP.
The dilution buffer for TrkA is as follows: 20 mM MOPS/NaOH pH7, 1 mM EDTA, 5% glycerol, 0.01% Brij35, 0.1% 2-mercapto, 1 mg/ml BSA.
as §1
as §2, with “two hours” for “forty minutes”

[4] = target: T4, TrkB (Homo sapiens, UniProt Q16620); test: Inhibition of kinase TrkB (Kinase-Glo); settings: TrkB 4 μg/ml, 40 μM ATP, two hours at 30° C.
T4 construct: purchased Upstate 14-507
Procedure: Protein TrkB (Upstate 14-507; batch #25578U) is incubated at a concentration of 4 μg/ml in a buffer containing 8 mM of MOPS/NaOH pH7, 0.2 mM EDTA, 40 mM MgAc (Sigma #229768), 1 mM DTT (Fluka #43816), NaOV 1 mM, 25 mM 2-glycerolphosphate (Sigma #G9891), in the presence of 2.5 mg/ml of peptide substrate poly-EY (Upstate #P0275), and 40 μM of ATP.
The dilution buffer for TrkB is as follows: 20 mM MOPS/NaOH pH7, 1 mM EDTA, 5% glycerol, 0.01% Brij35, 0.1% 2-mercapto, 1 mg/ml BSA.
as §1
as §2, with “two hours” for “forty minutes”

[5] = target: ALK (Homo sapiens, UniProt Q9UM73); test: Inhibition of kinase ALK (PLCγ1-GST substrate, anti-phosphotyrosine ELISA); settings: ALK 180 ng/ml, 250 μM ATP, 30 minutes at 30° C.
Procedure: Incubation is carried out for 30 minutes at 30° C. with agitation.
The signal is read in luminescent mode using a luminometer.

ALK, sequence (Q9UM73 19-1620, species assumed): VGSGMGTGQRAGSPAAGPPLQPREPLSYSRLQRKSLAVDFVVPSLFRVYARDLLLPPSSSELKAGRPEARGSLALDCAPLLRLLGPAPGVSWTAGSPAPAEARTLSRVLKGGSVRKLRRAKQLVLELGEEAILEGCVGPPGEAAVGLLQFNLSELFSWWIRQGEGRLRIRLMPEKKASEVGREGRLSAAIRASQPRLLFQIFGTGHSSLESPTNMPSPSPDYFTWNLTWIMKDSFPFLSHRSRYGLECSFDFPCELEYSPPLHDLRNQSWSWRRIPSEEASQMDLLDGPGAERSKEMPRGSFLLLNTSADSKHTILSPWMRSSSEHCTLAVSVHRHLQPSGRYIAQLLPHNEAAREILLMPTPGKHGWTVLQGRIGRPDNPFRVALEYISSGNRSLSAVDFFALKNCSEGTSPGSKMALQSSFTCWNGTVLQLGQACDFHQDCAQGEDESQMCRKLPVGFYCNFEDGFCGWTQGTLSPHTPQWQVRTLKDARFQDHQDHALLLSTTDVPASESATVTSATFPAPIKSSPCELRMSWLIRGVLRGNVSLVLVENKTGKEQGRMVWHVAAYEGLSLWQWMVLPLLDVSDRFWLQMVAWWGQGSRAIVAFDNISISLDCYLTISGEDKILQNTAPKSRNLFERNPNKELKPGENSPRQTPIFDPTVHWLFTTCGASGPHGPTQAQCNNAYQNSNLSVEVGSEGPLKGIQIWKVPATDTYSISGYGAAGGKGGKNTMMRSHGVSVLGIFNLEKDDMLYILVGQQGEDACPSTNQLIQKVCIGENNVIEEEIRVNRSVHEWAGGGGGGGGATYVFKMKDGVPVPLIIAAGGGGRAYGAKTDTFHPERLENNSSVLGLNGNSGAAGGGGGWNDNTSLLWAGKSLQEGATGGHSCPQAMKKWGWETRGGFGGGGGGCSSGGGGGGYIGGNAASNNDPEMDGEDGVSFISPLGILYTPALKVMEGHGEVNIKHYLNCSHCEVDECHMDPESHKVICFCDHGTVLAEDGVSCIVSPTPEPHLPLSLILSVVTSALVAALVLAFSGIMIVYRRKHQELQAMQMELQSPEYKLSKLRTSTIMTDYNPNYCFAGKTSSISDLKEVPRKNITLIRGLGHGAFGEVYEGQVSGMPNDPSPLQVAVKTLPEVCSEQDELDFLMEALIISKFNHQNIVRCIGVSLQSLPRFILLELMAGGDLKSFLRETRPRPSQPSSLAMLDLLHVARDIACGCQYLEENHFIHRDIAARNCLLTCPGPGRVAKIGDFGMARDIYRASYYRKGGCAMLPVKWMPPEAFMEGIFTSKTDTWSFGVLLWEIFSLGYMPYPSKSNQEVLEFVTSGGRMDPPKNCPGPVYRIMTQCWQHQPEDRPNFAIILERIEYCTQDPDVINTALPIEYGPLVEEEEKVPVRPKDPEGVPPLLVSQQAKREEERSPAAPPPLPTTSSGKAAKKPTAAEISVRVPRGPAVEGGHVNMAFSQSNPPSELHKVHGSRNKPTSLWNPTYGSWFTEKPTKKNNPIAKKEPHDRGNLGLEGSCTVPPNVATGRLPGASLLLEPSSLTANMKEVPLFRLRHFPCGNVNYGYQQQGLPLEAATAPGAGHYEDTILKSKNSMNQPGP
T4 sequence (Q16620 32-822): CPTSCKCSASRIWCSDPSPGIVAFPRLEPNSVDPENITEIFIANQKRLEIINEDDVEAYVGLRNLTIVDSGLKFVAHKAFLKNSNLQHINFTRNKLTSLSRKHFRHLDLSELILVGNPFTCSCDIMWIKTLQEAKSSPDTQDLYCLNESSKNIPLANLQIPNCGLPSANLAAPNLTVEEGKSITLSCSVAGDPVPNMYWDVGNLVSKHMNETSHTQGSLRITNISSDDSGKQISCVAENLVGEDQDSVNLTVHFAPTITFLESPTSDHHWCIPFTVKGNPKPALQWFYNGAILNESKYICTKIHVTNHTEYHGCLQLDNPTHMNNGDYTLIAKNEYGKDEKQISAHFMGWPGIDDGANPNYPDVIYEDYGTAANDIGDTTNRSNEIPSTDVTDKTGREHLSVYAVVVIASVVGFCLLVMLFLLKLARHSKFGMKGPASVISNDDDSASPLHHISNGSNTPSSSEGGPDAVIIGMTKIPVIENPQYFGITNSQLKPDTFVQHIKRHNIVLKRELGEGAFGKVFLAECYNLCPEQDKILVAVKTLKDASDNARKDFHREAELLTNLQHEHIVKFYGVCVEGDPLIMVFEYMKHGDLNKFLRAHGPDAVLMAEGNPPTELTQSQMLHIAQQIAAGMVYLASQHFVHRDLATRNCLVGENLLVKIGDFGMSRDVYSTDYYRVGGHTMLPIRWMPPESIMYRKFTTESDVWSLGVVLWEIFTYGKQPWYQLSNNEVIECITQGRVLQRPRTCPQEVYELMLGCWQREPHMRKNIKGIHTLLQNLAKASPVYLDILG
T3 sequence (P04629 33-796): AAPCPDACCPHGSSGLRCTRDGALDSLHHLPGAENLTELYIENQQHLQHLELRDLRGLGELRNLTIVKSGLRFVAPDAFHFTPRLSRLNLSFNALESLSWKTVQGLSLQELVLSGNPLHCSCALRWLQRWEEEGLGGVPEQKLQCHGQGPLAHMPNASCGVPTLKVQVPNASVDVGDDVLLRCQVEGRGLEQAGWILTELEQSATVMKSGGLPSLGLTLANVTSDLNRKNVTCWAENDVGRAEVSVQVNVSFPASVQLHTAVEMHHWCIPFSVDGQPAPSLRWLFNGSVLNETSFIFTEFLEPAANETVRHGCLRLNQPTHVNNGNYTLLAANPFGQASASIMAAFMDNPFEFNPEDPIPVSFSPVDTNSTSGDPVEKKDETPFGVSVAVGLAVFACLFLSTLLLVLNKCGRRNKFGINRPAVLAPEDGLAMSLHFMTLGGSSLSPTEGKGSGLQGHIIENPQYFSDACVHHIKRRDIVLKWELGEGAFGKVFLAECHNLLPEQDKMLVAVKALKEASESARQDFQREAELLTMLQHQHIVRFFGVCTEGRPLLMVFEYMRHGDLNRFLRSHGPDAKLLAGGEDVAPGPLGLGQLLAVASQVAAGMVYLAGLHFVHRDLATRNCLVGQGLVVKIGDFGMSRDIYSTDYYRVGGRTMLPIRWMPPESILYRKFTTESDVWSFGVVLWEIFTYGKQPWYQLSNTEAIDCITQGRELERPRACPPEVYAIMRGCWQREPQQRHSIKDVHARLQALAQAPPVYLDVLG
T2 sequence (P11309 whole entry): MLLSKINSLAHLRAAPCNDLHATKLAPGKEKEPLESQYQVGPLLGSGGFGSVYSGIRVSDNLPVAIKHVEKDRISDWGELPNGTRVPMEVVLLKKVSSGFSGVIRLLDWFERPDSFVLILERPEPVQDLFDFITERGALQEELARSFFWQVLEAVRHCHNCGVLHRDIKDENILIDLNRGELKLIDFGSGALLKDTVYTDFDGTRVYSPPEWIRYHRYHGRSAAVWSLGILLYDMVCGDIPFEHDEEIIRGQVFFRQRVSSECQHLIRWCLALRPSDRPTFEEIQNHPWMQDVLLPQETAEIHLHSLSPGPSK
T1 sequence (P07949 29-1114): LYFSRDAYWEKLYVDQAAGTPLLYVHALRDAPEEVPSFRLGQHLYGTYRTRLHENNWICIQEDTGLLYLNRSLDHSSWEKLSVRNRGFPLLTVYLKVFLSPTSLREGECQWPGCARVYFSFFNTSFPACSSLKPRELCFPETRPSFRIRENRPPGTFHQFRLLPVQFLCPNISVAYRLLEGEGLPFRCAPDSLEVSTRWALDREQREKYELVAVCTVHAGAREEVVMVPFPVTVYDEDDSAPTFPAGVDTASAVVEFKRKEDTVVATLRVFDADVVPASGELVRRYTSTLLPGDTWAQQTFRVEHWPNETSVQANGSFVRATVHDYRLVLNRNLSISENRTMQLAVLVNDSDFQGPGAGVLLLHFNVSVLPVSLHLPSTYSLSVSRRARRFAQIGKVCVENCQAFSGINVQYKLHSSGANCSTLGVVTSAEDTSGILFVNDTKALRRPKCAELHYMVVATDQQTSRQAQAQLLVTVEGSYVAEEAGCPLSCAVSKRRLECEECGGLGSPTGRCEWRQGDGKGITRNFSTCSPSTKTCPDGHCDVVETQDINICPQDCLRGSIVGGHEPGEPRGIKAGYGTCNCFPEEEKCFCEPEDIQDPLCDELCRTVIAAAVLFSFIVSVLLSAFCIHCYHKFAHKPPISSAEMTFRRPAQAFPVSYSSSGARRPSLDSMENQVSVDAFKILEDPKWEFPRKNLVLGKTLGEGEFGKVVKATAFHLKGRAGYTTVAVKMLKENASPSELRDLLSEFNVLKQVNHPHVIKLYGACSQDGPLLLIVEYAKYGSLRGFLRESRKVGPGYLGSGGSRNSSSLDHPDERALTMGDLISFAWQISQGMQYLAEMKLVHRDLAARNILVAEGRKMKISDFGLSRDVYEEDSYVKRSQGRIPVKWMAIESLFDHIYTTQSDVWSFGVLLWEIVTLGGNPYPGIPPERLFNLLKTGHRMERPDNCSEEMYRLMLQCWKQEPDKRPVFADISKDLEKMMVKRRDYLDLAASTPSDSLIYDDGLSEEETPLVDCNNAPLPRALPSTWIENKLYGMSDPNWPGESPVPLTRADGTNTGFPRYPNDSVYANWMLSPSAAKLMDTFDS

Row | SMILES | IC50 [1] | IC50 [2] | IC50 [3] | IC50 [4] | IC50 [5]
1 | CCCOC(=O)c1c[nH]c2c(=O)[nH]c3ccc(S(=O)(=O)N(C[C@@H]4CCCN4)C(C)C)cc3c12 [Compound 149, (S)-8-(Isopropyl-pyrrolidin-2-ylmethyl-sulfamoyl)-4-oxo-4,5-dihydro-3H-pyrrolo[2,3-c]quinoline-1-propyl carboxylate hydrochloride] | < 0.1 µM | – | – | – | 0.1 to 1 µM
2 | CCCOC(=O)c1c[nH]c2c(=O)[nH]c3ccc(S(=O)(=O)N(C[C@@H](C)N)C4CC4)cc3c12 [Compound 155, (R)-8-[(2-Amino-propyl)-cyclopropyl-sulfamoyl]-4-oxo-4,5-dihydro-3H-pyrrolo[2,3-c]quinoline-1-propyl carboxylate hydrochloride] | < 0.1 µM | – | – | – | 0.1 to 1 µM
3 | CCOC(=O)c1c[nH]c2c(=O)[nH]c3ccc(C(=O)N(C[C@@H]4CCCN4)C4CC4)cc3c12 [Compound 219, (S)-8-(cyclopropyl-pyrrolidin-2-ylmethyl-carbamoyl), 3-oxo-4,5-dihydro-3H-pyrrolo[2,3-c]quinoline-1-ethyl carboxylate hydrochloride] | 1 to 10 µM | – | – | – | 1 to 10 µM
4 | CCOC(=O)c1c[nH]c2c(=O)[nH]c3ccc(S(=O)(=O)O)cc3c12 [Compound 227, 4-Oxo-8-sulfo-4,5-dihydro-3H-pyrrolo[2,3-c]quinoline-1-ethyl carboxylate] | 1 to 10 µM | 1 to 10 µM | 1 to 10 µM | 1 to 10 µM | –
5 | CCCOC(=O)c1c[nH]c2c(=O)[nH]c3ccc(S(=O)(=O)N(C[C@@H]4CCCN4)C4CC4)cc3c12 [Compound 144, (S)-8-(Cyclopropyl-pyrrolidin-2-ylmethyl-sulfamoyl)-4-oxo-4,5-dihydro-3H-pyrrolo[2,3-c]quinoline-1-propyl carboxylate hydrochloride] | < 0.1 µM | – | – | – | 0.1 to 1 µM
6 | C#CCN(C[C@@H]1CCCN1)S(=O)(=O)c1ccc2[nH]c(=O)c3[nH]cc(C(=O)OCCC)c3c2c1 [Compound 150, (S)-4-Oxo-8-(prop-2-ynyl-pyrrolidin-2-ylmethyl-sulfamoyl)-4,5-dihydro-3H-pyrrolo[2,3-c]quinoline-1-propyl carboxylate hydrochloride] | < 0.1 µM | – | – | – | 0.1 to 1 µM
7 | CCCOC(=O)c1c[nH]c2c(=O)[nH]c3ccc(S(=O)(=O)N(C[C@H](C)N)C4CC4)cc3c12 [Compound 153, (S)-8-[(2-Amino-propyl)-cyclopropyl-sulfamoyl]-4-oxo-4,5-dihydro-3H-pyrrolo[2,3-c]quinoline-1-propyl carboxylate hydrochloride] | < 0.1 µM | – | – | – | 0.1 to 1 µM
8 | CCOC(=O)c1c[nH]c2c(=O)[nH]c3ccc(NS(=O)(=O)c4ccccc4)cc3c12 [Compound 37, 8-Benzenesulfonylamino-4-oxo-4,5-dihydro-3H-pyrrolo[2,3-c]quinoline-1-ethyl carboxylate] | 0.1 to 1 µM | 10 to 100 µM | 1 to 10 µM | 1 to 10 µM | –
9 | CCOC(=O)c1c[nH]c2c(=O)[nH]c3ccc(S(=O)(=O)N4CCCC4)cc3c12 [Compound 162, 4-Oxo-8-(pyrrolidine-1-sulfonyl)-4,5-dihydro-3H-pyrrolo[2,3-c]quinoline-1-ethyl carboxylate] | 0.1 to 1 µM | – | 1 to 10 µM | 1 to 10 µM | –

Further lines, with some results ahead:

Row | IC50 [1] | IC50 [2] | IC50 [3] | IC50 [4] | SMILES | IC50 [5]
10 | 0.1 to 1 µM | 1 to 10 µM | 1 to 10 µM | 0.1 to 1 µM | CCOC(=O)c1c[nH]c2c(=O)[nH]c3ccc(-c4cccc(O)c4)cc3c12 [Compound 237, 8-(3-Hydroxy-phenyl)-4-oxo-4,5-dihydro-3H-pyrrolo[2,3-c]quinoline-1-ethyl carboxylate] | –
11 | 0.1 to 1 µM | 10 to 100 µM | 10 to 100 µM | 10 to 100 µM | CCOC(=O)c1c[nH]c2c(=O)[nH]c3ccc(-c4cc[nH]n4)cc3c12 [Compound 282, 4-Oxo-8-(1H-pyrazol-3-yl)-4,5-dihydro-3H-pyrrolo[2,3-c]quinoline-1-ethyl carboxylate] | –
12 | 0.1 to 1 µM | 1 to 10 µM | 1 to 10 µM | 1 to 10 µM | CCOC(=O)c1c[nH]c2c(=O)[nH]c3ccc(-c4cccc(CO)c4)cc3c12 [Compound 240, 8-(3-Hydroxymethyl-phenyl)-4-oxo-4,5-dihydro-3H-pyrrolo[2,3-c]quinoline-1-ethyl carboxylate] | –
13 | 0.1 to 1 µM | – | – | – | CCCOC(=O)c1c[nH]c2c(=O)[nH]c3ccc(S(=O)(=O)N(C[C@@H]4CCCN4C)C4CC4)cc3c12 [Compound 145, (S)-8-[Cyclopropyl-(1-methyl-pyrrolidin-2-ylmethyl)sulfamoyl]-4-oxo-4,5-dihydro-3H-pyrrolo[2,3-c]quinoline-1-propyl carboxylate] | 1 to 10 µM
14 | < 0.1 µM | 10 to 100 µM | 1 to 10 µM | 1 to 10 µM | CCOC(=O)c1c[nH]c2c(=O)[nH]c3ccc(S(=O)(=O)N(CCC#N)C4CC4)cc3c12 [Compound 127, 8-[(2-Cyano-ethyl)-cyclopropyl-sulfamoyl]-4-oxo-4,5-dihydro-3H-pyrrolo[2,3-c]quinoline-1-ethyl carboxylate] | –
15 | < 0.1 µM | 10 to 100 µM | 1 to 10 µM | 10 to 100 µM | CCCOC(=O)c1c[nH]c2c(=O)[nH]c3ccc(S(=O)(=O)N(C)C4CCNCC4)cc3c12 [Compound 120, 8-(Methyl-piperidin-4-yl-sulfamoyl)-4-oxo-4,5-dihydro-3H-pyrrolo[2,3-c]quinoline-1-propyl carboxylate] | –
16 | 0.1 to 1 µM | 1 to 10 µM | 10 to 100 µM | 10 to 100 µM | CCNc1nccc(-c2ccc3[nH]c(=O)c4[nH]cc(C(=O)OCC)c4c3c2)n1 [Compound 264, 8-(2-Ethylamino-pyrimidin-4-yl)-4-oxo-4,5-dihydro-3H-pyrrolo[2,3-c]quinoline-1-ethyl carboxylate] | –
17 | 0.1 to 1 µM | 1 to 10 µM | 10 to 100 µM | 10 to 100 µM | O=C(OCC1CCCCC1)c1c[nH]c2c(=O)[nH]c3ccc(S(=O)(=O)NC4CCNCC4)cc3c12 [Compound 117] | –
18 | < 0.1 µM | 1 to 10 µM | 10 to 100 µM | 10 to 100 µM | CCCCOC(=O)c1c[nH]c2c(=O)[nH]c3ccc(S(=O)(=O)NC4CCNCC4)cc3c12 [Compound 115, 4-Oxo-8-(piperidin-4-ylsulfamoyl)-4,5-dihydro-3H-pyrrolo[2,3-c]quinoline-1-carboxylate of butyl] | –
19 | < 0.1 µM | 10 to 100 µM | 1 to 10 µM | 10 to 100 µM | CCOC(=O)c1c[nH]c2c(=O)[nH]c3ccc(S(=O)(=O)N(C)c4ccccc4)cc3c12 [Compound 3, 8-(Methyl-phenylsulfamoyl)-4-oxo-4,5-dihydro-3H-pyrrolo[2,3-c]quinoline-1-ethyl carboxylate] | –
20 | 0.1 to 1 µM | 1 to 10 µM | 10 to 100 µM | 10 to 100 µM | CCOC(=O)c1c[nH]c2c(=O)[nH]c3ccc(-c4cccc(CN(C)C)c4)cc3c12 [Compound 242, 8-(3-Dimethylaminomethyl-phenyl)-4-oxo-4,5-dihydro-3H-pyrrolo[2,3-c]quinoline-1-ethyl carboxylate] | –
21 | < 0.1 µM | 1 to 10 µM | 10 to 100 µM | 10 to 100 µM | CCCOC(=O)c1c[nH]c2c(=O)[nH]c3ccc(S(=O)(=O)NC4CCNCC4)cc3c12 [Compound 114, 4-Oxo-8-(piperidin-4-ylsulfamoyl)-4,5-dihydro-3H-pyrrolo[2,3-c]quinoline-1-propyl carboxylate] | –
